Assay results from patent US12637433B2, “Histone deacetylase inhibitors” (THE UNIVERSITY OF QUEENSLAND, priority 2020, dated 2026).
Where two headings read alike, the source gives them in different places.

Assays:
Format in all cases: biochemical
human HDAC1 enzyme = molecular target: T1, human HDAC1 enzyme (Homo sapiens, UniProt Q13547); test: Human HDAC1 enzyme assay (Class I HDACs)
T1 construct: purchased BPS Bioscience
Experimental: The inhibitory effect of compounds on HDAC1 activity was assessed in vitro using an optimised assay performed in black/flat black wall 384-well plate (Corning Inc.). All reagents and compounds were prepared in HDAC1 assay buffer (25 mM Tris-HCl, 137 mM NaCl, 2.7 mM KCl, 1 mM MgCl2·H2O and 0.1 mg/mL bovine serum albumin; pH 8). Various concentrations of inhibitor were pre-incubated with 50 ng/mL human HDAC1 enzyme (BPS Bioscience) for 30 min at room temperature on a plate shaker. Substrate (Leu(Ac)-Gly-Lys(Ac)-AMC, 12 μM) were then added and incubated for 90 min at 37° C. in the dark. The enzymatic reaction was then incubated with the developer solution (1 mg/mL trypsin and 25 μM SAHA) for 15-20 min at room temperature. Fluorescence intensity was measured using PHERAstar plate reader (BMG Labtech) at 350 nm excitation and 460 nm emission.
(§1) Data analysis: Triplicate measurements were made for each data point and error bars represent mean±SEM of three independent experiments. All data were plotted and analysed using GraphPad Prism Version 6.0d for Mac OS X (GraphPad Software). Dose Response Curves plotted using 4 parameters logistic model.

human HDAC7 enzyme = molecular target: T2, human HDAC7 enzyme (Homo sapiens, UniProt Q8WUI4); test: Human HDAC7 enzyme assay (Class IIa HDACs); conditions: Table 8; recombinant human HDAC7
T2 construct: purchased Reaction Biology Corp

human HDAC6 enzyme = molecular target: T3, human HDAC6 enzyme (Homo sapiens, UniProt Q9UBN7); test: Human HDAC6 enzyme assay (Class IIb HDACs); conditions: Table 9; recombinant human HDAC
T3 construct: purchased Cayman Chemical
Experimental: The inhibitory effect of compounds on HDAC6 activity was assessed in vitro using an optimised assay performed in black/flat black wall 384-well plate (Corning Inc.). All reagents and compounds were prepared in HDAC assay buffer (25 mM Tris-HCl, 137 mM NaCl, 2.7 mM KCl, 1 mM MgCl2·H2O and 0.1 mg/mL bovine serum albumin; pH 8). Various concentrations of inhibitor were pre-incubated with 100 ng/ml human HDAC6 enzyme (Cayman Chemical) for 15 min at room temperature on a plate shaker. Substrate (Boc-Lys(Ac)-AMC, 25 μM) were then added and incubated for 60 min at 37° C. in the dark. The enzymatic reaction was then incubated with the developer solution (1 mg/mL trypsin and 10 μM SAHA) for 15-20 min at room temperature. Fluorescence intensity was measured using PHERAstar plate reader (BMG Labtech) at 350 nm excitation and 460 nm emission.
as §1

HDAC4 = HDAC4 (Homo sapiens, UniProt P56524); test: Isoform selectivity, HDAC4 inhibition; conditions: Table 9; recombinant human HDAC; read-out: IC50, Class IIa HDAC4
HDAC5 = HDAC5 (Homo sapiens, UniProt Q9UQL6); test: Isoform selectivity, HDAC5 inhibition; conditions: Table 9; recombinant human HDAC; read-out: IC50, Class IIa HDAC5
HDAC9 = HDAC9 (Homo sapiens, UniProt Q9UKV0); test: Isoform selectivity, HDAC9 inhibition; conditions: Table 9; recombinant human HDAC; read-out: IC50, Class IIa HDAC9
[1] = Table 8, recombinant human HDAC1, read-out: IC50 (nM) (HDAC1)
[2] = Table 9, recombinant human HDAC, read-out: IC50, Class I HDAC1

Sequence of HDAC9 (Q9UKV0 whole entry, canonical isoform): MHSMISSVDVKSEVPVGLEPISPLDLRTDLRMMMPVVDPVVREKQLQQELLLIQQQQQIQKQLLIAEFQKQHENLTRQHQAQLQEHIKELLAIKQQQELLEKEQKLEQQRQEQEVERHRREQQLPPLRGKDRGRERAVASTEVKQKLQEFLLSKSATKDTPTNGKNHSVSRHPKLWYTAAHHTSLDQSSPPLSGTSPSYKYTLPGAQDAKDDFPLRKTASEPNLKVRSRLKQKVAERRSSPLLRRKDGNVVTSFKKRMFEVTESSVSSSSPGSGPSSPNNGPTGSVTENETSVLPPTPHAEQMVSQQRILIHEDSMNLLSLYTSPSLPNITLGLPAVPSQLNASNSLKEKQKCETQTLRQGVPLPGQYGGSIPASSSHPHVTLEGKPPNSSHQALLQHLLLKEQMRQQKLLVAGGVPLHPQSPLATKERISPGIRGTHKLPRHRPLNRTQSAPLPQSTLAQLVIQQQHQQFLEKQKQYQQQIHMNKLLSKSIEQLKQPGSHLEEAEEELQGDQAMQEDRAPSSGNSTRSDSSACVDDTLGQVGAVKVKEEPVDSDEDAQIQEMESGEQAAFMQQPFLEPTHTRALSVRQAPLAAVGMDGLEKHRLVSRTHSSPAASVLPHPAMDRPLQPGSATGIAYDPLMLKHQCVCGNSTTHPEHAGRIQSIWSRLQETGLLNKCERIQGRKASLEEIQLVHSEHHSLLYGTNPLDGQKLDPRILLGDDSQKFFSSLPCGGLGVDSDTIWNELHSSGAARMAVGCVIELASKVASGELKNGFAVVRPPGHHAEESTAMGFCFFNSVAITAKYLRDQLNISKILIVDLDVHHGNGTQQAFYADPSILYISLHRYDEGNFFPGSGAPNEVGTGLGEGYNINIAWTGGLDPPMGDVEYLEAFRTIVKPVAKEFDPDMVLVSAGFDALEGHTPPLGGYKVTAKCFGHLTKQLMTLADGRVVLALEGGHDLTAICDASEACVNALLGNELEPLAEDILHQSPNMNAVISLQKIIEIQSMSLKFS
Sequence of HDAC5 (Q9UQL6 whole entry, canonical isoform): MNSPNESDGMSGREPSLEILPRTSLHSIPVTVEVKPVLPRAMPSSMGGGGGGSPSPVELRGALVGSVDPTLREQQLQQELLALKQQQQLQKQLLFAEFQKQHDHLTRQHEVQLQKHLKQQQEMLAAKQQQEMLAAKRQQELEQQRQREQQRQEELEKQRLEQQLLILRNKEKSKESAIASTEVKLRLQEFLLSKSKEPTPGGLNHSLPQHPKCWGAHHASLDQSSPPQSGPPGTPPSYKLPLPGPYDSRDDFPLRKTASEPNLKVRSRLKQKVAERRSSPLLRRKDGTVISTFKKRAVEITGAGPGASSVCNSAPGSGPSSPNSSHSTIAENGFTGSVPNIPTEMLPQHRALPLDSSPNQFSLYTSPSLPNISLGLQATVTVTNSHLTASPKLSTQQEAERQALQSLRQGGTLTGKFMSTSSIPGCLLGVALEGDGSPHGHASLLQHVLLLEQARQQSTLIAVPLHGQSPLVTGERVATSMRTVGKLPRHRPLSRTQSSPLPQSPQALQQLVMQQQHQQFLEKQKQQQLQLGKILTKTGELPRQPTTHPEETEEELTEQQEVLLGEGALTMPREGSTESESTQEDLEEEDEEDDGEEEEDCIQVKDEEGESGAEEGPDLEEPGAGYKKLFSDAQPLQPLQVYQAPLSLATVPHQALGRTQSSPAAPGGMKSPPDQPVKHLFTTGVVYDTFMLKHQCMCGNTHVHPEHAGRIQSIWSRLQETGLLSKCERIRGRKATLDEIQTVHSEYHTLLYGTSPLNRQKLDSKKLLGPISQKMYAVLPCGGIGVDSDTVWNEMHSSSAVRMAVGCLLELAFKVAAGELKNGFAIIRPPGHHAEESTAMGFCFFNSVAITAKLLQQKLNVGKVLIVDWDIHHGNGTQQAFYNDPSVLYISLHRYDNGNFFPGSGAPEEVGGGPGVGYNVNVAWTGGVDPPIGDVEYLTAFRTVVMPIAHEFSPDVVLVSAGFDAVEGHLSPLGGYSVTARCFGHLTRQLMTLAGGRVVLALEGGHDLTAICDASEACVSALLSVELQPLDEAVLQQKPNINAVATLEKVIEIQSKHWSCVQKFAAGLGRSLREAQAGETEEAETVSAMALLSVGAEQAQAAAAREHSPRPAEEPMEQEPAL
T2 sequence (Q8WUI4 whole entry): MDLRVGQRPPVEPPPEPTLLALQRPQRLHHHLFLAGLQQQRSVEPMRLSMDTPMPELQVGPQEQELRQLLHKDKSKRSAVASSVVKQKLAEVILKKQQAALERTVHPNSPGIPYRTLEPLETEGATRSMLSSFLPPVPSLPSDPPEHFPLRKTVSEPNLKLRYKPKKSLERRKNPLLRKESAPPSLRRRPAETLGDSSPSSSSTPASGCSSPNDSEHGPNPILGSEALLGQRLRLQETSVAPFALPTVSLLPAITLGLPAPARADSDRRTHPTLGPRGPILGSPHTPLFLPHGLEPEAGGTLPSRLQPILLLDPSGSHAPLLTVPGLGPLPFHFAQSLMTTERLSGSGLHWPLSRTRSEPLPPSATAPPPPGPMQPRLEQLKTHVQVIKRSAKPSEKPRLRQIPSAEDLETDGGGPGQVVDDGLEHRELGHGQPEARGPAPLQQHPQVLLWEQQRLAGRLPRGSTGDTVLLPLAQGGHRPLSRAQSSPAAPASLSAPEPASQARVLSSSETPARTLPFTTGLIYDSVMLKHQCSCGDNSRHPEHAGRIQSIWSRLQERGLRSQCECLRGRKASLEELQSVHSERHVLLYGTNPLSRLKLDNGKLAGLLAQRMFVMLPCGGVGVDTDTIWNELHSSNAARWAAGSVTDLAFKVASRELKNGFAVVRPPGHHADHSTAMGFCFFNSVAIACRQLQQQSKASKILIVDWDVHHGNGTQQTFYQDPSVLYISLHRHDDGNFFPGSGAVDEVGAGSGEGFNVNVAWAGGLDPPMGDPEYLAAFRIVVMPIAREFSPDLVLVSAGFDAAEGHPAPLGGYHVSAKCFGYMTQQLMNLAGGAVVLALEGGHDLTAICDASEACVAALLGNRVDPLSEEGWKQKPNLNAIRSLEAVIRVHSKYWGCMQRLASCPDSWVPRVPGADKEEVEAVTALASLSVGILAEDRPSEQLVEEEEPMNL
Sequence of HDAC4 (P56524 whole entry, canonical isoform): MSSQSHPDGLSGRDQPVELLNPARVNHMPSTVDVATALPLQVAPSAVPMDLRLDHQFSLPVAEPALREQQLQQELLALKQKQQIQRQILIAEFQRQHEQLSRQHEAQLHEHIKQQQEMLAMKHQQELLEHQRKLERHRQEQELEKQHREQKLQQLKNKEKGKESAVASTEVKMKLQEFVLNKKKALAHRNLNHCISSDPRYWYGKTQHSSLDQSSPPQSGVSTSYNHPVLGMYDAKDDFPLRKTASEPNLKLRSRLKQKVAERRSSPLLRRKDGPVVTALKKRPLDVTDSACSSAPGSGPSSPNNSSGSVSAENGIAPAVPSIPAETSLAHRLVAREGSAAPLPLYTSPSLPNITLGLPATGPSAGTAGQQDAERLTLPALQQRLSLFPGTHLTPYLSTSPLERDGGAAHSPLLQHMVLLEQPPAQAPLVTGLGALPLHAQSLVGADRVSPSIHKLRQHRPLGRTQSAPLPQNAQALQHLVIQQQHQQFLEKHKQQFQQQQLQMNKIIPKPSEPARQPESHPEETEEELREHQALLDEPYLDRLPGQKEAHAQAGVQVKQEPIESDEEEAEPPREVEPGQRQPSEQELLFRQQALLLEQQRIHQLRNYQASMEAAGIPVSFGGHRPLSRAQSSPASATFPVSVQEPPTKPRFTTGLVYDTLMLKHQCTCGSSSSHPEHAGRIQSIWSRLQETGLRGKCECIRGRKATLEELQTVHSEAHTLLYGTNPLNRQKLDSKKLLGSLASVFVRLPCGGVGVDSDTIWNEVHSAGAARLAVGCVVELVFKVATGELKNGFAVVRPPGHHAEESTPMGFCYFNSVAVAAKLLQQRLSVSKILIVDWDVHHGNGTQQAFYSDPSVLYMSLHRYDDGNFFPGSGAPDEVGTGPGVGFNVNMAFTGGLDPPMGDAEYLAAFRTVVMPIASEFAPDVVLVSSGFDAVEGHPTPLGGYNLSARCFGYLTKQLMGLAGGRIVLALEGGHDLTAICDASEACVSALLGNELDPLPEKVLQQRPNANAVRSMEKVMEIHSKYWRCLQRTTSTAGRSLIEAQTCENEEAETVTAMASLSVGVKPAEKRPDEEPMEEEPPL
T1 sequence (Q13547 whole entry): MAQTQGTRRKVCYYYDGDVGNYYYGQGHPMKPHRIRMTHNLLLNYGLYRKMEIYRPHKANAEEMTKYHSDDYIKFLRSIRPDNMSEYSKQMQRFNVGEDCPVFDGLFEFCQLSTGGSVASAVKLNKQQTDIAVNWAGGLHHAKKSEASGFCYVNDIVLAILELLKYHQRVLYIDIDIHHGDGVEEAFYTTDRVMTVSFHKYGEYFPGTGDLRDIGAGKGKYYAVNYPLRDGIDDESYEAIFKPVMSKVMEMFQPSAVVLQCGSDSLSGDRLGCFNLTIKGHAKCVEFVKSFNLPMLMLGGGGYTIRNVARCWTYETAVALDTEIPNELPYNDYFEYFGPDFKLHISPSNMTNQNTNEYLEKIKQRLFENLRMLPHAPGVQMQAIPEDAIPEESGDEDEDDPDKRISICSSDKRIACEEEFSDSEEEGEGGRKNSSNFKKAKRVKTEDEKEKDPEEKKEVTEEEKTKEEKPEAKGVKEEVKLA

SMILES	IC50 (human HDAC1 enzyme; [1]) [nM]	IC50 (human HDAC7 enzyme) [nM]	IC50 (human HDAC6 enzyme) [µM]	IC50 (HDAC4) [nM]	IC50 (HDAC5) [nM]	IC50 (HDAC9) [nM]	IC50 (human HDAC1 enzyme; [2]) [nM]
O=C(NCc1ccc(C(=O)NO)c(-c2ccccc2)c1)c1ccc[nH]1 [Example 23]	> 10000	81 ± 14					
Cc1nc2ccccc2c(=O)n1Cc1ccc(C(=O)NO)c(-c2ccccc2)c1 [compound 12]	2200	7.3 ± 1.2	1.1	42 ± 7	9 ± 2	17 ± 3	
CN(C)c1ccc(C2(C(=O)Nc3ccc(C(=O)NO)c(-c4ccccc4)c3)CCCC2)cc1 [Example 64]	> 10000	556 ± 317					
O=C(NCc1ccc(C(=O)NO)c(-c2ccccc2)c1)c1cc2ccccc2[nH]1 [Example 24]	> 10000	59 ± 10					
CC(C)C(C(=O)Nc1ccc(C(=O)NO)c(-c2ccccc2)c1)c1ccccc1 (stereo not drawn) [Example 59]	> 10000	555 ± 334					
O=C(NCc1ccc(C(=O)NO)c(Br)c1)Nc1cccc2cccnc12 [Example 1, 2-bromo-N-hydroxy-4-((3-(quinolin-8-yl)ureido)methyl)benzamide, reference compound]	3840 ± 1630	> 10000					
O=C(NCc1ccc(C(=O)NO)c(Oc2ccccc2)c1)Nc1cccc2cccnc12 [Example 3, 2-phenoxy-N-hydroxy-4-((3-(quinolin-8-yl)ureido)methyl)benzamide, reference compound]	2520 ± 1340	> 10000					
Cc1nc2ccccc2c(=O)n1Cc1ccc(C(=O)NO)c(-c2ccc(F)cc2)c1 [Example 14]	3200	6.4 ± 0.8	1.3 ± 0.48	22 ± 3	8 ± 1	15 ± 3	
O=C(NO)c1ccc(CN2C(=O)c3ccccc3C2=O)cc1-c1ccccc1 [Example 36]	32000		5.7	28 ± 4	12 ± 2	133 ± 52	32000
Cc1cc(F)ccc1-c1cc(Cn2c(C)nc3ccccc3c2=O)ccc1C(=O)NO [Example 13]	4210 ± 1760	12 ± 1.2					
O=C(NO)c1ccc(NC(=O)C2(c3ccc(Br)cc3)CCCC2)cc1-c1ccccc1 [Example 65]	4900 ± 1710	1210 ± 700					
NC(=O)c1ccc(Nc2ccc(C(=O)NO)c(-c3ccccc3)c2)cc1 [Example 79]	> 10000	43 ± 9					
O=C(NO)c1ccc(CN2C(=O)c3cccc(F)c3C2=O)cc1-c1ccccc1 [Example 55]	27000		4.4	13 ± 3	16 ± 2	183 ± 102	27000
O=C(NO)c1ccc(CN2C(=O)c3ccccc3S2(=O)=O)cc1-c1ccccc1 [Example 56]	4900		5.5	48 ± 6	8 ± 1	93 ± 44	4900
O=C(NCc1ccc(C(=O)NO)c(-c2ccccc2)c1)Nc1cccc2cccnc12 [Example 2]	2360 ± 452	214 ± 54					
CCc1nc2ccccc2c(=O)n1Cc1ccc(C(=O)NO)c(-c2ccccc2)c1 [Example 35]	5280 ± 3490						
